Experimental findings from ChEMBL document CHEMBL1649318, “Chromosomally encoded blaCMY-2 located on a novel SXT/R391-related integrating conjugative element in a Proteus mirabilis clinical isolate” (2010) are described below.

In brackets after ≈: the same amount, converted by molar mass.

For experiment [1], the system named is Escherichia coli. In words: Antimicrobial activity against Escherichia coli ML4901 by broth dilution method in presence of beta-lactamase inhibitor clavulanic acid. The class given is functional. (In general: Broth dilution looks for growth in wells or tubes with falling amounts of substance.)
Experiment [2] deals with Escherichia coli. In words: Antimicrobial activity against Escherichia coli ML4901 by broth dilution method. It is filed as functional.
Experiment [3] concerns Escherichia coli. In words: Antimicrobial activity against Escherichia coli ML4909 by broth dilution method. The class given is functional.
The subject of experiment [4] is Proteus mirabilis. Kind of experiment: Antimicrobial activity against Proteus mirabilis TUM4660 by broth dilution method in presence of beta-lactamase inhibitor clavulanic acid. It is filed as functional.
The test system of experiment [5] is Escherichia coli. In words: Antimicrobial activity against Escherichia coli TUM4672 by broth dilution method.
For experiment [6], the system named is Escherichia coli. In words: Antimicrobial activity against Escherichia coli TUM4670 by broth dilution method in presence of beta-lactamase inhibitor clavulanic acid.
For experiment [7], the system named is Escherichia coli. In words: Antimicrobial activity against Escherichia coli ML4909 by broth dilution method in presence of beta-lactamase inhibitor clavulanic acid. It is filed as functional.
Experiment [8] concerns Escherichia coli. In words: Antimicrobial activity against Escherichia coli TUM4670 by broth dilution method. The class given is functional.
Experiment [9] has as its system Escherichia coli. In words: Antimicrobial activity against Escherichia coli TUM4672 by broth dilution method in presence of beta-lactamase inhibitor clavulanic acid.
Experiment [10] has as its system Proteus mirabilis. In words: Antimicrobial activity against Proteus mirabilis TUM4660 by broth dilution method. It is filed as functional.
The test system of experiment [11] is Proteus mirabilis. Kind of experiment: Antimicrobial activity against Proteus mirabilis TUM4660 by disk diffusion method in presence of 300 ug 3-aminophenyl-boronic acid. It is filed as functional. On the technique in general: A growth-free zone around the sample is the usual read-out of agar diffusion tests.
In experiment [12] the test system is Escherichia coli. In words: Antimicrobial activity against Escherichia coli ML4909 by broth dilution method in presence of beta-lactamase inhibitor Tazobactam. It is filed as functional.
Experiment [13] has as its system Escherichia coli. Kind of experiment: Antimicrobial activity against Escherichia coli TUM4670 by broth dilution method in presence of beta-lactamase inhibitor Tazobactam. The class given is functional.
The test system of experiment [14] is Proteus mirabilis. In words: Antimicrobial activity against Proteus mirabilis TUM4660 by broth dilution method in presence of beta-lactamase inhibitor Tazobactam. It is filed as functional.
Experiment [15] concerns Escherichia coli. Kind of experiment: Antimicrobial activity against Escherichia coli TUM4672 by broth dilution method in presence of beta-lactamase inhibitor Tazobactam. It is filed as functional.
Experiment [16] deals with Escherichia coli. Kind of experiment: Antimicrobial activity against Escherichia coli ML4901 by broth dilution method in presence of beta-lactamase inhibitor Tazobactam. It is filed as functional.

As for `CO/N=C(\C(=O)N[C@@H]1C(=O)N2C(C(=O)O)=C(COC(C)=O)CS[C@H]12)c1csc(N)n1` [CEFOTAXIME], the MIC (commonly the lowest concentration found to suppress growth) with Escherichia coli [1] is at most 0.06 µg/mL; in the experiment with Escherichia coli [2], at most 0.06 µg/mL; against Escherichia coli [3], at most 0.06 µg/mL; in the experiment on Proteus mirabilis [4] it was 16 µg/mL; against Escherichia coli [5], 32 µg/mL (≈ 70.3 µM); in the experiment on Escherichia coli [6] it was 32 µg/mL. For the same compound, the MIC was at most 0.06 µg/mL in the experiment on Escherichia coli [7], 16 µg/mL (≈ 35.1 µM) against Escherichia coli [8], 64 µg/mL with Escherichia coli [9] and 8 µg/mL (≈ 17.6 µM) against Proteus mirabilis [10].
In the case of `CC1(C)S[C@@H]2[C@H](NC(=O)[C@H](N)c3ccc(O)cc3)C(=O)N2[C@H]1C(=O)O` [AMOXICILLIN], the minimum inhibitory concentration (MIC) with Escherichia coli [1] was 4 µg/mL; in the experiment on Escherichia coli [2] it was 4 µg/mL (≈ 10.9 µM); against Escherichia coli [3] it was 2 µg/mL (≈ 5.47 µM); in the experiment on Proteus mirabilis [4] it was above 128 µg/mL; in the experiment with Escherichia coli [5], above 128 µg/mL; in the experiment with Escherichia coli [6] it was above 128 µg/mL. Also, the minimal inhibitory concentration (MIC) in the experiment with Escherichia coli [7] is 2 µg/mL; against Escherichia coli [8], above 128 µg/mL; in the experiment with Escherichia coli [9], above 128 µg/mL; in the experiment on Proteus mirabilis [10] it was above 128 µg/mL.
As to `CC(C)(O/N=C(\C(=O)N[C@@H]1C(=O)N2C(C(=O)[O-])=C(C[n+]3ccccc3)CS[C@H]12)c1csc(N)n1)C(=O)O` [CEFTAZIDIME], the MIC in the experiment with Escherichia coli [1] was at most 0.06 µg/mL; in the experiment with Escherichia coli [2], 0.25 µg/mL (≈ 0.457 µM); with Escherichia coli [3], 0.25 µg/mL (≈ 0.457 µM); in the experiment with Proteus mirabilis [4], 16 µg/mL; in the experiment with Escherichia coli [5] it was 128 µg/mL (≈ 234 µM); in the experiment with Escherichia coli [6], 32 µg/mL. In addition, the MIC is 0.12 µg/mL in the experiment on Escherichia coli [7], 128 µg/mL (≈ 234 µM) against Escherichia coli [8], 64 µg/mL in the experiment on Escherichia coli [9] and 16 µg/mL (≈ 29.3 µM) in the experiment with Proteus mirabilis [10]. In addition, in the experiment on Proteus mirabilis [11], the “diameter of the inhibition zone (DIZ)” value was above 5 mm.
For `C[C@@H](O)[C@H]1C(=O)N2C(C(=O)O)=C(SCCNC=N)C[C@H]12` [IMIPENEM ANHYDROUS], the figures for the MIC in the experiment on Escherichia coli [5], with Escherichia coli [8] and with Proteus mirabilis [10] were 0.25 µg/mL (≈ 0.835 µM), 0.25 µg/mL (≈ 0.835 µM) and 8 µg/mL (≈ 26.7 µM), respectively.
As to `CO/N=C(\C(=O)N[C@@H]1C(=O)N2C(C(=O)[O-])=C(C[N+]3(C)CCCC3)CS[C@H]12)c1csc(N)n1`, the MIC in the experiment on Escherichia coli [3] was at most 0.06 µg/mL; against Escherichia coli [5], 2 µg/mL (≈ 4.16 µM); against Escherichia coli [8], 1 µg/mL (≈ 2.08 µM); in the experiment on Proteus mirabilis [10], 2 µg/mL (≈ 4.16 µM).
Regarding `CO[C@@]1(NC(=O)Cc2cccs2)C(=O)N2C(C(=O)O)=C(COC(N)=O)CS[C@@H]21` [CEFOXITIN], the minimum inhibitory concentration (MIC) was 2 µg/mL (≈ 4.68 µM) in the experiment on Escherichia coli [2]; 4 µg/mL (≈ 9.36 µM) against Escherichia coli [3]; above 128 µg/mL against Escherichia coli [5]; 128 µg/mL (≈ 299 µM) in the experiment with Escherichia coli [8]; 128 µg/mL (≈ 299 µM) against Proteus mirabilis [10].
On to GENTAMICIN, for which the MIC is 2 µg/mL with Escherichia coli [2], 2 µg/mL in the experiment with Escherichia coli [3], 1 µg/mL in the experiment with Escherichia coli [8] and 1 µg/mL in the experiment on Proteus mirabilis [10].
For the compound `CCN1CCN(C(=O)N[C@@H](C(=O)N[C@@H]2C(=O)N3[C@@H]2SC(C)(C)[C@@H]3C(=O)O)c2ccccc2)C(=O)C1=O` [PIPERACILLIN], the MIC with Escherichia coli [2] was 2 µg/mL (≈ 3.86 µM); against Escherichia coli [3] it was 2 µg/mL (≈ 3.86 µM); in the experiment with Escherichia coli [12], 2 µg/mL; in the experiment on Escherichia coli [13], above 128 µg/mL; with Escherichia coli [5], above 128 µg/mL; in the experiment on Proteus mirabilis [14] it was 16 µg/mL. For the same compound, the MIC in the experiment on Escherichia coli [15] is above 128 µg/mL; in the experiment on Escherichia coli [8] it was above 128 µg/mL; in the experiment with Proteus mirabilis [10] it was above 128 µg/mL; with Escherichia coli [16], 2 µg/mL.
For the compound `COc1cc(Cc2cnc(N)nc2N)cc(OC)c1OC` [TRIMETHOPRIM], the MIC in the experiment with Escherichia coli [2] is at most 0.06 µg/mL; in the experiment with Escherichia coli [3], 0.12 µg/mL (≈ 0.413 µM); against Escherichia coli [5] it was at most 0.06 µg/mL; in the experiment on Escherichia coli [8], at most 0.06 µg/mL; against Proteus mirabilis [10], 4 µg/mL (≈ 13.8 µM).
As to `O=C(O)c1cn(C2CC2)c2cc(N3CCNCC3)c(F)cc2c1=O` [CIPROFLOXACIN], the MIC is at most 0.06 µg/mL against Escherichia coli [2]; at most 0.06 µg/mL with Escherichia coli [3]; at most 0.06 µg/mL in the experiment on Escherichia coli [5]; at most 0.06 µg/mL against Escherichia coli [8]; 0.12 µg/mL (≈ 0.362 µM) against Proteus mirabilis [10].
